From patent publication EP0153845A2, “CRF analogs” (THE SALK INSTITUTE FOR BIOLOGICAL STUDIES, priority 1984, dated 1985)

What was measured:
[1] = test system: ACTH and B-END-LI secretion; test: ACTH and β-END-LI secretion in vivo after intravenous hCRF in rats
Procedure: Plasma levels of ACTH and B-END-LI are elevated for at least 5-20 minutes following the intraveneous administration of hCRF to nembutal-anesthesized male rats and to quiescent male or female rats with indwelling intravenous cannulae.

[2] = test system: ACTH rise due to ether-exposure; test: Ether-exposure (stressor) induced ACTH rise in intact rats; format: in vivo
[3] = target: T1, cultured rat pituitary cells (Rattus norvegicus, UniProt P35353); test: Block of ACTH and β-endorphin secretion by cultured rat pituitary cells by CRF antagonists (procedure of Example XLIII); format: cell-based; conditions: different concentrations of oCRF; several concentrations of antagonist against oCRF (1 nM)
T1 sequence (P35353 24-415): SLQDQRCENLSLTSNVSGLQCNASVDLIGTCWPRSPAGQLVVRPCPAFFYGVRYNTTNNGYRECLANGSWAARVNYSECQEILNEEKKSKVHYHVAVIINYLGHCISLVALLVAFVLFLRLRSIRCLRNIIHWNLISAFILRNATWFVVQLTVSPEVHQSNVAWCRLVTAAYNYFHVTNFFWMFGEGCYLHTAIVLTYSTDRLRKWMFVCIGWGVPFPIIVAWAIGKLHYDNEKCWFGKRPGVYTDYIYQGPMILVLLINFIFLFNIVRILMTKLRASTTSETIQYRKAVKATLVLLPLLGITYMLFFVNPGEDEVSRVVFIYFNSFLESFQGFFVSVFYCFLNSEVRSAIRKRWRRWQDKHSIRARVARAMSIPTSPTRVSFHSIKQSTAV
Procedure: (§1) The effectiveness of synthetic CRF antagonists to block the secretion of ACTH and B-endorphin by cultured rat pituitary cells is measured using the procedure as generally set forth in Vale et al., Endocrinology, 91, 562 (1972). In vivo testing is carried out using the general procedure set forth in C. Rivier et al., Science, 218, 377 (1982).

[4] = test system: GnRH-stimulated secretion of LH and FSH; test: Specificity: effect on GnRH-stimulated LH and FSH secretion; format: cell-based
spontaneous ACTH release = test: Spontaneous ACTH release by adrenalectomized rats; format: in vivo; conditions: iv injection of 3 mg/kg BW (2.7 nmole)
Procedure: as §1
The in vivo effect of CRF antagonists is tested on the spontaneous ACTH release by adrenalectomized rats.

[5] = test system: TRF-stimulated secretion of TSH and prolactin; test: Specificity: effect on TRF-stimulated TSH and prolactin secretion; format: cell-based
[6] = test system: GRF-stimulated secretion of GH; test: Specificity: effect on GRF-stimulated GH secretion; format: cell-based
[7] = test system: CRF-induced ACTH secretion; test: CRF-induced ACTH secretion in intact, non-anesthetized rats; format: in vivo

In the case of `CC[C@H](C)[C@H](NC(=O)[C@@H](NC(=O)[C@H](CCC(=O)O)NC(=O)[C@H](CCSC)NC(=O)[C@H](CC(C)C)NC(=O)[C@H](CCCCN)NC(=O)[C@H](CCCNC(=N)N)NC(=O)[C@H](CC(N)=O)NC(=O)[C@H](CO)NC(=O)[C@H](Cc1c[nH]cn1)NC(=O)[C@H](C)NC(=O)[C@H](CCC(N)=O)NC(=O)[C@H](CCC(N)=O)NC(=O)[C@H](C)NC(=O)[C@H](CC(C)C)NC(=O)[C@H](CCC(N)=O)NC(=O)[C@H](CCC(=O)O)NC(=O)[C@H](C)NC(=O)[C@H](CCCNC(=N)N)NC(=O)[C@H](C)NC(=O)[C@H](CCSC)NC(=O)[C@H](CCC(=O)O)NC(=O)[C@H](CC(C)C)NC(=O)[C@@H](NC(=O)[C@H](CCC(=O)O)NC(=O)[C@H](CCCNC(=N)N)NC(=O)[C@H](CC(C)C)NC(=O)[C@H](CC(C)C)NC(=O)[C@H](Cc1c[nH]cn1)NC(=O)[C@H](Cc1ccccc1)NC(=O)[C@@H](NC(=O)[C@H](CC(C)C)NC(=O)[C@H](CC(=O)O)NC(=O)[C@H](CC(C)C)NC(=O)[C@H](CO)NC(=O)[C@@H](NC(=O)[C@@H]1CCCN1C(=O)[C@@H]1CCCN1C(=O)[C@H](CCC(=O)O)NC(=O)[C@H](CCC(=O)O)NC(=O)[C@@H](N)CO)[C@@H](C)CC)[C@@H](C)O)C(C)C)[C@@H](C)CC)C(N)=O` [hCRF], the “time for which plasma levels of ACTH and B-END-LI are elevated” value ([1]; intravenous administration, nembutal-anesthetized male rats and quiescent male or female rats with indwelling intravenous cannulae) is reported as 5 to 20 min and the “ACTH and B-END-LI secretion in vivo” value ([1]; several rat preparations) is reported as “powerful stimulator”.
With “H-DLTFHLLREMLEMAKAEQEAEQAALNRLLLEEA-NH2 [AHC (9-41)]” the “ACTH rise due to ether-exposure” value [2] was “prevents most, but not all”, the “type of inhibition of oCRF-stimulated ACTH secretion” value [3] was “competitive inhibition” and the “effect on the GnRH-stimulated secretion of LH and FSH” value [4] was “no effect”. For the same compound, the “plasma ACTH levels (spontaneous ACTH release)” value (spontaneous ACTH release) was “marked decrease”, the “effect on the TRF-stimulated secretion of TSH and prolactin” value [5] was “no effect” and the “effect on the GRF-stimulated secretion of GH” value [6] was “no effect”. The “inhibition of CRF-induced ACTH secretion” value [7] was “dose-related inhibition”.
